Test results published in paper PMC10843894 (Cell and tissue research, 2011).
Ends that are not written are not given here.

Columns and labels:
intracellular Ca^2+ = assay: Secretin-induced catecholamine secretion with intracellular Ca2+ chelator; assay type: cell-based, rat; conditions: BAPTA-AM 50 μM pre-treatment 30 min; secretin 8 μM, 20 min, Ca2+-free buffer + 0.5 mM EGTA
phospholipase C = conditions: U-73122 20 μM, secretin 8 μM, 0.5 min
PLC-β = assay: Inhibition of secretin-evoked catecholamine secretion by PLC-β blockade; assay type: cell-based, rat; conditions: secretin 8 μM, 20 min
[1] = tested on: plasma membrane Ca^2+ channels; assay type: cell-based, rat
[2] = tested on: plasma membrane Ca^2+ channels; assay type: cell-based, rat; conditions: ZnCl2 100 μM; data not shown
catecholamine secretion = conditions: cited from earlier work
Th gene = conditions: cited from earlier work; for transcription of Th (PACAP and VIP, literature): porcine/bovine chromaffin cells, PC12 cells, CATH.a cells, ref Isobe et al. 1996, Park et al. 1999, Tonshoff et al. 1997, Corbitt et al. 1998, 2002, Yukimasa et al. 1999, Muller et al. 1997
cAMP in PC12 cells = conditions: cited from earlier work
VPAC1 = biological target: T1, VPAC1 (Rattus norvegicus, UniProt P30083); assay: Blockade of secretin-induced Th transcription by VPAC1 antagonist; conditions: pre-treatment before secretin 0.1 μM (Fig. 1d)
T1 sequence (P30083 31-459): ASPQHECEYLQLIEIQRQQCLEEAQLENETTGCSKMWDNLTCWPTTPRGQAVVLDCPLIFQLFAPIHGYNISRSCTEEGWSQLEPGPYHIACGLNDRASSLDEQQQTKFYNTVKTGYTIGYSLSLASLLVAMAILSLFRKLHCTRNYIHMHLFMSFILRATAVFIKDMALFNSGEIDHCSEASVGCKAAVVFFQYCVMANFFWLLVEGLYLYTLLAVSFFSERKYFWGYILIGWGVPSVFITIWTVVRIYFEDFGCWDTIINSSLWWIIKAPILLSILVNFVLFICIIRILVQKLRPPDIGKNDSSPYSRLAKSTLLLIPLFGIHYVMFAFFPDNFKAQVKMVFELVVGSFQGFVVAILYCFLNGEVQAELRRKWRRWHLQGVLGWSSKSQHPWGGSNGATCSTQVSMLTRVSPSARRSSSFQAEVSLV

PAC1 receptor = PAC1 receptor agonism inferred from secretion concentrations; assay type: cell-based; conditions: inferred from secretion findings
SCTR = assay: Inhibition of secretin-induced catecholamine secretion by SCTR antagonist; assay type: cell-based, rat; conditions: antagonist up to 20 μM, secretin 6 μM, 30 min

CC(=O)OCOC(=O)CN(CC(=O)OCOC(C)=O)c1ccccc1OCCOc1ccccc1N(CC(=O)OCOC(C)=O)CC(=O)OCOC(C)=O [BAPTA-AM]
effect of BAPTA-AM on secretin-induced catecholamine secretion (intracellular Ca^2+): completely abolished

COc1ccc2c(c1)CC[C@@H]1[C@@H]2CC[C@]2(C)[C@@H](NCCCCCCN3C(=O)C=CC3=O)CC[C@@H]12 [U73122]
inhibition of IP3 levels by PLC blockade (phospholipase C): ~ 61% | inhibition of secretin-evoked catecholamine secretion by PLC-β inhibitor (PLC-β; U-73122 10 μM): ~ 54%

COc1ccc2c(c1)CC[C@@H]1[C@@H]2CC[C@]2(C)[C@@H](NCCCCCCN3C(=O)CCC3=O)CC[C@@H]12 [U-73343]
effect of inactive isomer on secretin-induced secretion (PLC-β; U-73343 10 μM): did not affect secretin-induced secretion

[Cl-].[Cl-].[Zn+2] [ZnCl2]
effect of non-specific Ca2+ channel blockade on secretin-induced secretion ([1]; ZnCl2 100 μM, secretin 8 μM, 20 min): ineffective | block of PACAP-induced catecholamine secretion [2]: completely blocked

CN1CCC[C@H]1c1cccnc1 [nicotine]
prolonged catecholamine secretion, nicotine (literature) (catecholamine secretion; ref Hamelink et al. 2002): does not cause prolonged catecholamine secretion

Pituitary adenylyl cyclase activating polypeptide [PACAP]
transcription of Th (PACAP and VIP, literature) (Th gene): augment the transcription of Th | concentration achieving significant catecholamine secretion (PACAP) (catecholamine secretion; ref Chowdhury et al. 1994, Przywara et al. 1996): 10 nM | prolonged catecholamine secretion, PACAP (literature) (catecholamine secretion; ref Taupenot et al. 1999): long-lasting | intracellular cAMP levels in chromaffin cells (literature), PACAP (cAMP in PC12 cells; ref Hamelink et al. 2002): elevated

VIP6–28: VPAC1 (VIP6–28) antagonist (FTDNYTRLRKQMAVKKYLNSILN; ends and bridges not checked; UniProt P01282 130-152, looked up, fragment)
effect of VPAC1 antagonist on Th gene expression induced by secretin or PHI (Th gene; ref Wessels-Reiker et al. 1993): no significant effect | effect of VPAC1 antagonist on VIP-increased Th mRNA (Th gene; ref Wessels-Reiker et al. 1993): lowers the effect of VIP on increasing Th mRNA | effect on secretin-induced transcription of Th gene, VPAC1 antagonist (VPAC1): Failure

Vasoactive intestinal polypeptide [VIP]
transcription of Th (PACAP and VIP, literature) (Th gene): augment the transcription of Th | agonism at PAC1 receptor (PAC1 receptor): poor agonists for the PAC1 receptor | concentration achieving significant catecholamine secretion (VIP) (catecholamine secretion; ref Guo and Wakade 1994, Wakade et al. 1991): 300 nM | source of Ca2+ for VIP-induced catecholamine secretion (catecholamine secretion; ref Malhotra et al. 1988): depends solely upon Ca^2+ mobilization from intracellular stores | intracellular cAMP levels in chromaffin cells (literature), VIP (cAMP in PC12 cells; ref Anderova et al. 1998): elevated

secretin5–27: SCTR antagonist (secretin5–27) (TFTSELSRLREGARLQRLLQGLV; ends and bridges not checked; UniProt P09683 32-54, looked up, fragment)
effect of SCTR antagonist on VIP- or PHI-induced Th gene expression (Th gene; ref Wessels-Reiker et al. 1993): no significant effect | effect of SCTR antagonist on secretin-induced Th gene expression (literature) (Th gene; ref Wessels-Reiker et al. 1993): reduces the effect of secretin | effect of SCTR antagonist on secretin-induced secretion (SCTR): failed to inhibit secretion

ω-agatoxin
effect of Ca2+ channel inhibitors on secretin-induced catecholamine secretion [1]: little to no effect

ω-conotoxin GVIA
effect of Ca2+ channel inhibitors on secretin-induced catecholamine secretion [1]: little to no effect

ω-conotoxin MVIIC
effect of Ca2+ channel inhibitors on secretin-induced catecholamine secretion [1]: little to no effect
